Converted amounts (≈) assume the structure as drawn.

In test [1] the test system is H. pylori ATCC 26695. As to conditions: H. pylori ATCC 26695(S); footnote b; cited from earlier work.
Test [2] has as its system H. pylori ATCC 43504. As to conditions: H. pylori ATCC 43504(R); footnote a; cited from earlier work.
Test [3] has as its system H. pylori ATCC 26695. The test is described as follows: MIC determination using broth microdilution method, Helicobacter pylori. The following applies: ATCC26695, H. pylori ATCC 26695(S), metronidazole-susceptible strain, read-out: MIC. It is filed as cell-based. As for the experimental part:
(§1) • 1) A frozen solution stored at −80° C. was taken out, and thawed at room temperature; 100 μL of bacterial solution was taken with a pipette, coated onto a Columbia blood agar plate (finished-product medium), put invertedly in a […] culture box, placed in a micro-aerobic gas production bag to achieve a micro-aerobic environment, and cultured at 37° C. for 2-3 days. • 2) A sterile inoculation ring was used to pick Helicobacter pylori single colonies (transparent water droplets) grown on the Colombian blood agar medium and inoculated in the above liquid medium; and cultured at 37° C. in a micro-aerobic environment for 3 days. • 3) A required concentration (absorbance) for the experiment was reached after culture, and the bacterial solution was taken for subsequent experiments.
(§2) The drug concentration at which bacteria ceased to grow or grew at the most significant reduction level was referred to as the MIC value.
Background: In broth dilution the organism is exposed to a series of concentrations in liquid medium.

The subject of test [4] is H. pylori Sydney strain SS1. The test is described as above. It counts as cell-based. As to conditions: H. pylori Sydney strain SS1, read-out: MIC. How it is done:
as §1, §2

Test [5] has as its system H. pylori ATCC 43504. The test is described as above. It counts as cell-based. As to conditions: Helicobacter pylori, ATCC43504; H. pylori ATCC 43504(R), metronidazole-resistant strain; read-out: MIC. How it is done:
as §1, §2

A further test relates to H. pylori NCTC 11637. Described as above. As to conditions: Helicobacter pylori, NCTC11637; H. pylori NCTC 11637(R), metronidazole-resistant strain; read-out: MIC. It counts as cell-based. As for the experimental part: as §1, §2
Test [6] has as its system Porphyromonas gingivalis ATCC 33277. The test is described as follows: MIC determination using broth microdilution method, anaerobic bacteria. As to conditions: ATCC33277; Porphyromonas gingivalis ATCC 33277; broth microdilution, anaerobic, 37° C., 48 h; read-out: MIC. It is filed as cell-based. How it is done:
S5, Culture of Porphyromonas gingivalis strain: • the strain stored at −80° C. was resuscitated in the anaerobic glove box with a Colombian blood agar plate, and statically cultured at 37° C. in the constant-temperature incubator for 5-7 days.
(§3) The culture process of the strain was operated in the anaerobic glove box. After the operation was completed, the strain was well sealed with an anaerobic bag or an anaerobic box, taken out and then cultured in the constant-temperature incubator.

Test [7] concerns Bacteroides fragilis ATCC 25285. The test is described as above. It counts as cell-based. As to conditions: ATCC25285; Bacteroides fragilis ATCC 25285; broth microdilution, anaerobic, 37° C., 48 h; read-out: MIC. As for the experimental part: as §3
Test [8] concerns Clostridioides difficile infection (spores, 027 Type). The test is described as follows: Clostridioides difficile infection (CDI) mouse model. As to conditions: for number of surviving mice: 10 animals per group. It is filed as in vivo, C57BL/6 mice. An excerpt:
• 1) Experimental animals: C57BL/6, 4-6 weeks old, female.
In order to evaluate the efficacy of the compounds of the present application on Clostridioides difficile infection, an animal model of Clostridioides difficile infection was established, as shown in FIG. 1. […] On Day 0, the mice were administrated with 10^5 CFU/mL of spores by gavage; and on Days 1 and 2, the mice were administrated with 10^6 CFU/mL of spores by gavage. Starting from Day 3, the mice were given 7 days of drug treatment, and all mice were euthanized at the end of the experiment, except for the death of mice during the treatment.
Two of the conjugates, SCUT1-2 and SCUT1-6, with the optional in-vitro inhibitory activities were selected. […] The therapeutic effect of the conjugate of the present application in the treatment of Clostridioides difficile infection was evaluated.

Test [9] concerns Clostridioides difficile ATCC 43255. The test is described as follows: MIC determination using broth microdilution method, anaerobic bacteria. It counts as cell-based. The following applies: ATCC43255; Clostridioides difficile ATCC 43255; broth microdilution, anaerobic, 37° C., 48 h. How it is done: 0.10 g of sterile cycloserine and 3.20 mg of sterile cefoxitin (filtered by a filter membrane and sterilized) were added to every 200 mL, mixed well, and poured into a sterile petri dish for later use.
S3, culture of Clostridioides difficile strain: 1) the strain stored at −80° C. was resuscitated in an anaerobic glove box with a cycloserine-cefoxitin-fructose agar medium plate, and statically cultured at 37° C. in a constant-temperature incubator for 48 h; • 2) single colonies were picked, and statically cultured in the brain heart infusion broth medium overnight at 37° C. in the constant-temperature incubator; and • 3) the bacterial solution that was statically cultured overnight was transferred into the anaerobic glove box with the brain heart infusion broth medium at a ratio of 1:100, and cultured for 3-4 h until the OD600 was between 0.6 and 0.8; and during this process, 5 g/L of yeast extract solution was added to increase a strain concentration.
as §3

Where [10] appears, read: Day 3 (before the administration), 50 mg/kg groups.

For `Cc1ncc([N+](=O)[O-])n1CCO` [Metronidazole], the “MIC reported in related literatures” value is “(1-8)^b μg/mL” in the test on H. pylori ATCC 26695 [1] and “(64-256)^a μg/mL” in the test on H. pylori ATCC 43504 [2]. Moreover, the MIC with H. pylori ATCC 26695 [3] is 4 µg/mL (≈ 23.4 µM); in test [4], 8 µg/mL (≈ 46.7 µM); in the test with H. pylori ATCC 43504 [5] it was over 128 µg/mL; in the test on H. pylori NCTC 11637, over 128 µg/mL; in [6] it was 2 µg/mL (≈ 11.7 µM); in test [7], 0.25 to 2 µg/mL (≈ 1.46 to 11.7 µM). This compound also registered an MIC in test [9] of 1 to 2 µg/mL (≈ 5.84 to 11.7 µM). Moreover, the “number of mice with diarrhea” value in [8] (setting [10]) is 9 number of mice; in test [8] (Day 4, 50 mg/kg) it was 8 number of mice; in test [8] (Day 5, 50 mg/kg) it was 5 number of mice; in test [8] (Day 6, 50 mg/kg), 3 number of mice; in [8] (Day 7, 50 mg/kg), 3 number of mice; in [8] (Day 8, 50 mg/kg) it was 3 number of mice. Besides, in test [8] (Day 9, 50 mg/kg), the “number of mice with diarrhea” value was 3 number of mice. Also, the “number of surviving mice” value in [8] (setting [10]) was 10 number of mice; in [8] (Day 4, 50 mg/kg), 9 number of mice; in test [8] (Day 5, 50 mg/kg), 8 number of mice; in test [8] (Day 6, 50 mg/kg) it was 8 number of mice; in [8] (Day 7, 50 mg/kg), 8 number of mice; in test [8] (Day 8, 50 mg/kg), 8 number of mice. In addition, in test [8] (Day 9, 50 mg/kg), the “number of surviving mice” value is given as 8 number of mice. For the same compound, in test [8] (after 7 days of drug treatment, 50 mg/kg, Model group 44.44%), the probability of survival was determined as 80%.
Consider `C[C@H](CCC(=O)O)[C@H]1CC[C@H]2[C@@H]3[C@@H](O)C[C@@H]4C[C@H](O)CC[C@]4(C)[C@H]3CC[C@]12C` [UDCA, ursodeoxycholic acid, reference compound], for which the MIC with H. pylori ATCC 26695 [3] was over 32 µg/mL; in test [4], over 32 µg/mL; in the test on H. pylori ATCC 43504 [5], over 128 µg/mL; with H. pylori NCTC 11637 it was over 128 µg/mL; in test [6] it was over 32 µg/mL; in [7], over 32 µg/mL. The same compound came in with an MIC in [9] of 16 µg/mL (≈ 40.8 µM). Further, the “number of mice with diarrhea” value is reported as 9 number of mice in test [8] (setting [10]); 9 number of mice in test [8] (Day 4, 50 mg/kg); 7 number of mice in test [8] (Day 5, 50 mg/kg); 6 number of mice in test [8] (Day 6, 50 mg/kg); 4 number of mice in test [8] (Day 7, 50 mg/kg); 5 number of mice in [8] (Day 8, 50 mg/kg). For the same compound, in test [8] (Day 9, 50 mg/kg), the “number of mice with diarrhea” value is 5 number of mice. The “number of surviving mice” value in test [8] (setting [10]) is 10 number of mice; in test [8] (Day 4, 50 mg/kg), 10 number of mice; in test [8] (Day 5, 50 mg/kg) it was 10 number of mice; in test [8] (Day 6, 50 mg/kg), 10 number of mice; in test [8] (Day 7, 50 mg/kg), 10 number of mice; in [8] (Day 8, 50 mg/kg), 10 number of mice. Further, in [8] (Day 9, 50 mg/kg), the “number of surviving mice” value is on record as 10 number of mice.

What is called MIC is the lowest concentration found to suppress growth.

(Values after US20260199482A1, “BILE ACID-METRONIDAZOLE CONJUGATE AND USE THEREOF” (SOUTH CHINA UNIVERSITY OF TECHNOLOGY, priority 2022, published 2026).)
